Measurements as given in ChEMBL document CHEMBL3227967, “Quantitative structure-activity relationships in 1-aryl-2-(alkylamino)ethanol antimalarials” (J Med Chem, 1979).

Test system: Plasmodium berghei
Assay: Antimalarial activity against Plasmodium berghei
Format: functional

SMILES | log(1/C)
OC(CC1CCCCN1)c1cc2cc(C(F)(F)F)ccc2c2ccc(Cl)cc12 (stereo not drawn) | 4.19
CCCCN(CCCC)CC(O)c1cc(-c2ccc(Cl)cc2)nc2ccccc12 (stereo not drawn) | 2.73
CCCCNCCC(O)c1cc2c(Cl)cc(Cl)cc2c2cc(C(F)(F)F)ccc12 (stereo not drawn) | 4.62
CCCCN(CCCC)CC(O)c1ccc2ccc3cccc(C(F)(F)F)c3c2c1 (stereo not drawn) | 2.23
CCCCNCC(O)c1cc(-c2ccc(Cl)cc2)nc(-c2ccc(Cl)cc2)c1 (stereo not drawn) | 3.56
CCCCN(CCCC)CC(O)c1cc2cc(Br)ccc2c2cc(C(F)(F)F)ccc12 (stereo not drawn) | 4.07
CCCNCCC(O)c1cc(C(F)(F)F)nc2c(C(F)(F)F)cccc12 (stereo not drawn) | 2.82
CCCCCCN(CCCCCC)CC(O)c1cc(-c2cccc(C(F)(F)F)c2)nc2c(Cl)cc(Cl)cc12 (stereo not drawn) | 3.32
CCCCCCCN(CCCCCCC)CC(O)c1cc2c(Cl)cc(Cl)cc2c2ncccc12 (stereo not drawn) | 2.86
OC(CC1CCCCN1)c1cc2ccccc2c2cc(C(F)(F)F)ccc12 (stereo not drawn) | 3.37
CCCCCCN(CCCCCC)CC(O)c1cc2ccc(C(F)(F)F)cc2c2ccsc12 (stereo not drawn) | 2.49
OC(CC1CCCCN1)c1cc2ccccc2c2ccc(C(F)(F)F)cc12 (stereo not drawn) | 3.22
OC(Cc1ccc2ccccc2n1)c1cc2ccc(C(F)(F)F)cc2c2cc(C(F)(F)F)ccc12 (stereo not drawn) | 4.11
CCCN(CCC)CC(O)c1cc2cc(Br)ccc2c2cc(Br)ccc12 (stereo not drawn) | 4.27
CCCCCCCN(CCCCCCC)CC(O)c1cc2cccc(Cl)c2c2ccccc12 (stereo not drawn) | 2.82
CCCCN(CCCC)CC(O)c1cc(-c2ccc(OC)cc2)nc2cc(Cl)c(Cl)cc12 (stereo not drawn) | 3.63
CCCCN(CCCC)CC(O)c1cc2cc(Br)c(Br)cc2c2cc(C(F)(F)F)ccc12 (stereo not drawn) | 4.31
CCCNCC(O)c1cc(-c2ccc(C(F)(F)F)cc2)nc(-c2ccc(C(F)(F)F)cc2)c1 (stereo not drawn) | 4.03
CCCCN(CCCC)CC(O)c1cc2ccc(C(C)(C)C)cc2c2cc(C(C)(C)C)ccc12 (stereo not drawn) | 3.19
CCCCN(CCCC)CC(O)c1cc2sccc2c2cc(Cl)sc12 (stereo not drawn) | 3.36
Cc1ccc(Oc2cc(C(O)CC3CCCCN3)c3cc(C)ccc3n2)cc1 (stereo not drawn) | 2.35
CCCCCCCN(CCCCCCC)CC(O)c1cc2ccncc2c2ccccc12 (stereo not drawn) | 2.33
CCCCN(CCCC)C(C)CC(O)c1cc(-c2ccc(Cl)cc2)nc2c(C)cc(C)cc12 (stereo not drawn) | 2.42
OC(CC1CCCCN1)c1cc2ccc(C(F)(F)F)cc2c2ccccc12 (stereo not drawn) | 3.43
CCCCCCCN(CCCCCCC)CC(O)c1cccc2c1cc(Cl)c1cc(Cl)c(Cl)cc12 (stereo not drawn) | 2.71

SMILES | log(1/C)
OC(CNC1CCCCC1)c1cc2ccc(Cl)cc2c2cc(Cl)ccc12 (stereo not drawn) | 3.36
CCCCCCN(CCCCCC)CC(O)c1cccc2ccc3cccc(Br)c3c12 (stereo not drawn) | 2.39
Cc1ccc2nc(C(F)(F)F)cc(C(O)CC3CCCCN3)c2c1 (stereo not drawn) | 2.84
CCCCN(CCCC)CC(O)c1cc(-c2ccccc2)nc2ccccc12 (stereo not drawn) | 2.54
C=C[C@H]1CN2CC[C@H]1C[C@H]2[C@H](O)c1ccnc2ccc(OC)cc12.O=C(O)CCC(=O)O | 2.28
CCCCN(CCCC)CC(O)c1cc(-c2ccc(Cl)cc2)nc2c(C(F)(F)F)cc(Cl)cc12 (stereo not drawn) | 4.61
CCCCNCC(O)c1cc2ccc(C(F)(F)F)cc2c2cc(C(F)(F)F)ccc12 (stereo not drawn) | 4.11
OC(CC1CCCCN1)c1cc2ccccc2c2c(C(F)(F)F)cccc12 (stereo not drawn) | 3.73
CCCCNCCC(O)c1c2ccccc2c(Cl)c2ccccc12 (stereo not drawn) | 2.49
CCCCN(CCCC)CC(O)c1cc(/C=C/c2ccc(C(F)(F)F)cc2)nc(/C=C/c2ccc(C(F)(F)F)cc2)c1 (stereo not drawn) | 3.82
CCCCN(CCCC)CC(O)c1cc(-c2ccc(Cl)cc2Cl)nc2c(Cl)cc(Cl)cc12 (stereo not drawn) | 3.66
CCCCN(CCCC)CC(O)c1cc(-c2cc(OC)c(OC)c(OC)c2)nc2c1cc(Cl)c1ccccc12 (stereo not drawn) | 3.32
OC(CC1CCCCN1)c1cc2c(Cl)c(Cl)c(Cl)c(Cl)c2c2cc(C(F)(F)F)ccc12 (stereo not drawn) | 4.75
CCC(CC)NCC(O)c1cc(-c2ccc(C(F)(F)F)cc2)nc(C(F)(F)F)c1 (stereo not drawn) | 3.28
CCCCCCCN(CCCCCCC)CC(O)c1cc(-c2ccc(Cl)cc2)cc2ccc(OC)cc12 (stereo not drawn) | 4.18
CCCCN(CCCC)CC(O)c1cc2ccc(C(F)(F)F)cc2c2cc(C)sc12 (stereo not drawn) | 2.52
CCCCN(CCCC)CC(O)c1cc(-c2ccc(F)cc2)nc(-c2ccc(F)cc2)c1 (stereo not drawn) | 3.23
CCCCN(CCCC)CC(O)c1cc(-c2ccc(Cl)cc2)nc(-c2ccc(OC)cc2)c1 (stereo not drawn) | 2.84
OC(CC1CCCCN1)c1cc(-c2ccc(Cl)cc2)nc(-c2ccc(Cl)cc2)c1 (stereo not drawn) | 3.83
Cc1ccc2cc(C(O)CC3CCCCN3)c3ccc(C(F)(F)F)cc3c2c1 (stereo not drawn) | 3.16
CCC(CC)NCC(O)c1cc2ccc(C(F)(F)F)cc2c2cc(C(F)(F)F)ccc12 (stereo not drawn) | 4.2
CCCCN(CCCC)CC(O)c1cc(Cc2ccccc2)nc2c(Cl)cccc12 (stereo not drawn) | 2.3
CCCCNCC(O)c1cc(-c2ccc(Cl)cc2)nc2cc(Cl)c(OC)cc12 (stereo not drawn) | 3.88
CCCC[N+]([O-])(CCCC)CC(O)c1cc(-c2ccc(Cl)cc2)nc(-c2ccc(Cl)cc2)c1 (stereo not drawn) | 3.57
CC(C)(C)NCC(O)c1cc2ccccc2c2ccccc12 (stereo not drawn) | 2.09

SMILES | log(1/C)
CCCCN(CCCC)CC(O)c1cc(C(=O)c2cccc(Cl)c2)nc2c(Cl)cc(Cl)cc12 (stereo not drawn) | 4.48
CCCCN(CCCC)CC(O)c1cc(C(=O)c2cccc(Cl)c2)nc2c(C(F)(F)F)cc(Cl)cc12 (stereo not drawn) | 3.98
CCCCN(CCCC)CC(O)c1cc(C2(C)CCCC2)nc2c(Cl)cc(Cl)cc12 (stereo not drawn) | 2.66
Cc1cc(C)c2nc(Nc3ccc(Cl)cc3)cc(C(O)CC3CCCCN3)c2c1 (stereo not drawn) | 2.74
CCCCCN(CCCCC)CC(O)c1cc2cc(Cl)ccc2c2cc(Cl)ccc12 (stereo not drawn) | 4.01
Cc1cc(C)c2nc(-c3ccc(Cl)cc3)cc(C(O)CC3CCCCN3)c2c1 (stereo not drawn) | 4.04
OC(CC1CCCCN1)c1cc(-c2ccc(C(F)(F)F)cc2)nc(C(F)(F)F)c1 (stereo not drawn) | 4.32
CCCCN(CCCC)CC(O)c1cc2cc(Cl)cc(Cl)c2c2cc(Cl)ccc12 (stereo not drawn) | 4.21
CCCCN(CCCC)CC(O)c1cc2c(Cl)c(Cl)ccc2c2cc(Cl)c(Cl)cc12 (stereo not drawn) | 3.34
CCCCCCN(CCCCCC)CC(O)c1cc(-c2ccc(Cl)cc2)nc2c(Cl)cccc12 (stereo not drawn) | 3.32
CCCCN(CCCC)CC(O)c1c(C)c2ccccc2c2ccccc12 (stereo not drawn) | 2.79
CCCCN(CCCC)CC(O)c1cc(-c2ccc(O)cc2)nc2c(Cl)cc(Cl)cc12 (stereo not drawn) | 2.66
CCCCNCC(O)c1cc(-c2cccc(C(F)(F)F)c2)nc(C(F)(F)F)c1 (stereo not drawn) | 3.69
CCCCNCC(O)c1cc(-c2ccc(Br)cc2)nc(-c2ccc(C(F)(F)F)cc2)c1 (stereo not drawn) | 3.94
CCCCCCN(CCCCCC)CC(O)c1cc(-c2ccc(Cl)cc2)nc2cc(C(F)(F)F)ccc12 (stereo not drawn) | 2.85
CCCCCCCN(CCCCCCC)CC(O)c1cccc2c1cc(Cl)c1ccccc12 (stereo not drawn) | 2.5
OC(CC1CCCCN1)c1cc2ccccc2c2c(Cl)cc(Cl)cc12 (stereo not drawn) | 3.52
COc1ccc(OC)c2c(C(O)CNC34CC5CC(CC(C5)C3)C4)cc(-c3ccc(Cl)cc3)nc12 (stereo not drawn) | 2.48
CCCCN(CCCC)CC(O)c1cc2sccc2c2ccsc12 (stereo not drawn) | 2.1
CCCNCC(O)c1cc2ccc(C(F)(F)F)cc2c2cc(C(F)(F)F)ccc12 (stereo not drawn) | 4.48
CCCCN(CCCC)CC(O)c1cc2cc(Cl)cc(Cl)c2c2cc(C(F)(F)F)ccc12 (stereo not drawn) | 3.74
CCCCCCCN(CCCCCCC)CC(O)c1cccc2cc3cccc(Cl)c3cc12 (stereo not drawn) | 2.36
CCCCN(CCCC)CC(O)c1cc(C(C)(C)C)nc2ccc(C)cc12 (stereo not drawn) | 2.53
OC(CNC1CCCC1)c1cc(-c2ccccc2)nc2c(Cl)cc(Cl)cc12 (stereo not drawn) | 2.54
CCCCN(CCCC)CC(O)c1cccc2ccc3cccc(Br)c3c12 (stereo not drawn) | 2.23

SMILES | log(1/C)
CCCCN(CCCC)CC(O)c1c(C)c(-c2ccc(Cl)cc2Cl)nc2c(Cl)cc(Cl)cc12 (stereo not drawn) | 3.15
CC(C)NCC(O)c1cc2ccc(C(F)(F)F)cc2c2cc(C(F)(F)F)ccc12 (stereo not drawn) | 3.8
FC(F)(F)c1cc(C2CCCCN2)c2ccc3ccccc3c2n1.OC(CC1CCCCN1)c1cc(C(F)(F)F)nc2c1ccc1ccccc12 (stereo not drawn) | 3.44
CCCCCCCN(CCCCCCC)CC(O)c1cc2ccsc2c2cc(Br)ccc12 (stereo not drawn) | 2.68
CCCCCCCN(CCCCCCC)CC(O)c1cc(-c2ccc(Cl)c(Cl)c2)cc2cc(Cl)c(OC)cc12 (stereo not drawn) | 2.58
CCCCN(CCCC)CC(O)c1cc2ccncc2c2c(Cl)cc(Cl)cc12 (stereo not drawn) | 2.57
CCCCN(CCCC)CC(O)c1cc(Oc2ccc(Cl)c(Cl)c2)cc2c(Cl)cc(Cl)cc12 (stereo not drawn) | 2.49
CCCCCCCN(CCCCCCC)CC(O)c1cccc2c1ccc1ccc(C(F)(F)F)cc12 (stereo not drawn) | 2.34
CCN(CC)CC(O)c1cc(-c2ccc(OC)c(OC)c2)nc2cc(Cl)ccc12 (stereo not drawn) | 2.81
CCCCNCC(O)c1cc2ccc(C(F)(F)F)cc2c2ccsc12 (stereo not drawn) | 2.51
CCCCN(CCCC)CC(O)c1cc(-c2ccc(Cl)cc2)nc2ccc(Cl)cc12 (stereo not drawn) | 3.8
CCCCN(CCCC)CC(O)c1cc2c(Cl)cc(Cl)cc2c2cc(Cl)ccc12 (stereo not drawn) | 3.72
CCN(CC)CCC(O)c1cc2ccc(C(F)(F)F)cc2c2cc(C(F)(F)F)ccc12 (stereo not drawn) | 4.12
CCCCN(CCCC)CC(O)c1cc2ccc(C(F)(F)F)cc2c2cc(Cl)sc12 (stereo not drawn) | 3.84
CCCCN(CCCC)CC(O)c1cc2ccc(Br)cc2c2cc(C)sc12 (stereo not drawn) | 2.44
CCCC(CCC)NCC(O)c1cc(-c2ccc(Cl)cc2)nc(-c2ccc(Cl)cc2)c1 (stereo not drawn) | 4.13
CCN(CC)CC(O)c1cc(-c2ccc(Cl)c(Cl)c2)nc2cc(OC)ccc12 (stereo not drawn) | 3.32
CCCCN(CCCC)CC(O)c1cc(-c2ccc(Cl)c(Cl)c2)cc2cc(Cl)ccc12 (stereo not drawn) | 4.81
CCCCN(CCCC)CC(O)c1cccc2cc3c(Cl)cccc3cc12 (stereo not drawn) | 2.1
OC(CC1CCCCN1)c1cc2c(Cl)cc(Cl)cc2c2cc(C(F)(F)F)ccc12 (stereo not drawn) | 4.1
CCCCN(CCCC)CC(O)c1cc(-c2c(Cl)cccc2Cl)nc2c(Cl)cc(Cl)cc12 (stereo not drawn) | 2.41
CCC(C)NCC(O)c1cc(-c2ccc(C(F)(F)F)cc2)nc(-c2ccc(C(F)(F)F)cc2)c1 (stereo not drawn) | 4.15
CCCC(C)NCC(O)c1cc(-c2ccc(C(F)(F)F)cc2)nc(-c2ccc(C(F)(F)F)cc2)c1 (stereo not drawn) | 4.44
